Test results published in patent US7022709B2, “Selective PDE 2 inhibitors as pharmaceuticals for improving perception” (priority 2000, dated 2006).
Read-outs that look alike come from different tables or passages of the source.

What was measured:
[1] = biological target: T1, PDE3B (Homo sapiens, UniProt Q13370); assay: PDE inhibition, human recombinant PDE3B, [3H]cAMP SPA; assay type: biochemical
T1 construct: made in house; host or cells: Sf9 cells, pFASTBAC baculovirus expression system (Gibco BRL)
Description: (§1) Human recombinant PDE2 (Rosman et al. Gene 1997 191, 89–95), PDE3B (Miki et al. Genomics 1996 36, 476–485), PDE4B (Bolger et al. Mol. Cell. Biol. 1993 13, 6558–6571) and PDE7B (Hetman et al. Proc. Natl. Acad. Sci. U.S.A. 2000 97, 472–476) are expressed in Sf9 cells with the aid of the pFASTBAC baculovirus expression system (Gibco BRL).
(§2) The activity of the test substances on human recombinant PDE2, PDE3B, PDE4B and PDE7B is determined using the [^3H]cAMP scintillation proximity assay (SPA) kit (TRKQ7090) from Amersham International (Little Chalfont, England) and on PDE1 and PDE5 using the [^3H]cGMP scintillation proximity assay (SPA) kit (TRKQ7100) from Amersham International (Little Chalfont, England).
(§3) Test substances are dissolved in 100% DMSO (10 mM), and this solution is diluted further with H2O (maximum final concentration in the assay: 10 μM). The PDE2 is prestimulated by adding cGMP (final concentration in the assay: 10^−6 M). The enzyme is diluted in PDE buffer (20 mM TRIS/HCl, 5 mM MgCl2, 0.1 mg/ml albumin, pH 7.5). […] After the beads have settled out (about 15 min), the plate is measured in a beta counter.
(§4) Calmodulin 10^−7 M and CaCl2 1 μM are added to the reaction mixture for the PDE1 measurement. PDE5 is measured using the [^3H] cGMP SPA assay. PDE3B, PDE4B and PDE7B are measured using the [^3H] cAMP scintillation proximity assay.

[2] = biological target: T2, PDE2 (Bos taurus, UniProt P14099); assay: PDE inhibition, cGMP-stimulated PDE2 from bovine myocardium; assay type: biochemical
T2 construct: from tissue; host or cells: bovine myocardium
T2 sequence (P14099 1-921): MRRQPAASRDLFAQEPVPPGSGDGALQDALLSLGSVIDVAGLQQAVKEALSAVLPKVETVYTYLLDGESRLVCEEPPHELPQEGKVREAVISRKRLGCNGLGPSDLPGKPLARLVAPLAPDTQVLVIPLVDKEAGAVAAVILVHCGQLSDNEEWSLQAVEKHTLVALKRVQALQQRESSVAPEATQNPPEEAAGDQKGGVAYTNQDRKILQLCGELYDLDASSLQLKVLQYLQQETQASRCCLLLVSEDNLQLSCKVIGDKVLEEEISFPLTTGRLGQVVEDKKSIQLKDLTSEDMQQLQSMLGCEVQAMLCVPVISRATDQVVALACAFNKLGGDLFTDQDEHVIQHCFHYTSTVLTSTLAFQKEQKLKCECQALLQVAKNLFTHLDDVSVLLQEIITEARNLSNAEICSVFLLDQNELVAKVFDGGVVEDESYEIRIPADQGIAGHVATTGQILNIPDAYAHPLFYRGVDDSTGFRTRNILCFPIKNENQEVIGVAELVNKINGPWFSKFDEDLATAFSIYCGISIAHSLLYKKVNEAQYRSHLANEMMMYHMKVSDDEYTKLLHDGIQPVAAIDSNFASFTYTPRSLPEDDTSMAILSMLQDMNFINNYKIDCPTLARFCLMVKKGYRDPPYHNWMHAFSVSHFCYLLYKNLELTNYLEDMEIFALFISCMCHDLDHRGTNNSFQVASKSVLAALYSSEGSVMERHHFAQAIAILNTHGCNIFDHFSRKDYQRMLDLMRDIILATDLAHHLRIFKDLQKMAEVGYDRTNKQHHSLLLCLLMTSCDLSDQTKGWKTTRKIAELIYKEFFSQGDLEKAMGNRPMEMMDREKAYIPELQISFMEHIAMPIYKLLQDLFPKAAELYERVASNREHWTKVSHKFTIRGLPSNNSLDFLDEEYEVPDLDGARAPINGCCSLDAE
Text: (§5) The PDE 2 which can be stimulated by cGMP is isolated from bovine myocardium. The PDE 1 which can be stimulated by Ca^2+ calmodulin is isolated from porcine aorta, porcine brain or, preferably, from bovine aorta. The cGMP-specific PDE 5 is obtained from porcine small intestine, porcine aorta, human blood platelets and, preferably, from bovine aorta. Purification takes place by anion exchange chromatography on MonoQ^R Pharmacia essential by the method of Hoey, M; Houslay, M. D., Biochem. Pharmacol. 1990, 40, 193–202 and Lugman et al. Biochem. Pharmacol. 1986, 35, 1743–1751.
(§6) The enzymatic activity is determined in an assay mixture of 100 μl in 20 mM Tris/HCl buffer pH 7.5 which contains 5 mM MgCl2, 0.1 mg/ml bovine serum albumin and 800 Bq of either [^3H]-cAMP or [^3H]-cGMP. The final concentration of the respective nucleotides is 10^−6 mol/l. […] 100 μl of the reaction mixture are separated by HPLC, and the cleavage products are determined quantitatively on line using a flow scintillation counter. The substance concentration at which the reaction rate is reduced by 50% is measured. […]
Test substances are dissolved in 100% DMSO (10 mM), and this solution is diluted further with H2O (maximum final concentration in the assay: 10 μM). […] After the beads have settled out (about 15 min), the plate is measured in a beta counter.

[3] = biological target: T3, PDE5 (Homo sapiens, UniProt O76074); assay: PDE inhibition, PDE5, [3H]cGMP SPA; assay type: biochemical
T3 construct: from tissue; host or cells: human blood platelets (inferred; b27 also lists porcine small intestine, porcine aorta and, preferably, bovine aorta)
Text: as §5
as §6, with “[^3H]-cGMP.” for “[^3H]-cGMP. The final concentration of the respective nucleotides is 10^−6 mol/l.”
as §2, with “England). […]” for “England).”

[4] = system: rats; assay: Object recognition test; assay type: in vivo, rat; settings: second run 24 hours later
Description: The object recognition test is a memory test. It measures the ability of rats (and mice) to distinguish between familiar and unfamiliar objects.
The test was carried out as described (Blokland et al. NeuroReport 1998, 9, 4205–4208; Ennaceur, A., Delacour, J., Behav. Brain Res. 1988, 31, 47–59; Ennaceur, A., Meliani, K., Psychopharmacology 1992, 109, 321–330; Prickaerts, et al. Eur. J. Pharmacol. 1997, 337, 125–136).
In a first run, a rat is confronted in an otherwise empty observation arena of relatively large size by two identical objects. The rat will investigate, i.e. sniff round and touch, both objects extensively. In a second run, after an interval of 24 hours, the rat is put in the observation arena again. One of the familiar objects has now been replaced by a new, unfamiliar object. If a rat recognizes the familiar object, it will concentrate on investigating the unfamiliar object. However, after 24 hours, a rat has normally forgotten which object it investigated in the first run, and it will therefore inspect both objects to the same extent. Administration of a substance with a learning- and memory-improving effect will lead to a rat recognizing the object seen in the first run 24 hours previously as familiar. It will investigate the new, unfamiliar object in more detail than the familiar one. This memory ability is expressed in a discrimination index. A discrimination index of zero means that the rat investigates both objects, the old and the new, for equal times; that is to say it has not recognized the old object and reacts to both objects as if they were unfamiliar and new.
The effects of Example 1 on object recognition by rats 24 hours after the first run were investigated. The animals received Tylose alone, or Example 1 in dosages of 0.3, 1.0 or 3.0 mg/kg of body weight suspended in Tylose, orally, immediately following the first run with two identical objects. […] After a washout period of 2 or 3 days, a new dosage of Example 1 was tested in the same rats, until the memory capacity of all the rats had been measured twice with all the dosages. […]

[5] = biological target: T4, PDE2 (Homo sapiens, UniProt O00408); assay: PDE inhibition, human recombinant PDE2, [3H]cAMP SPA; assay type: biochemical; set-up: made in house; host or cells: Sf9 cells, pFASTBAC baculovirus expression system (Gibco BRL)
Description: as §1, §2, §3

[6] = system: primary mouse (E18) cortex cultures; assay: Increasing the intracellular neuronal cGMP concentration in cell cultures; assay type: cell-based; settings: 100 nM Example 1, parallel incubation with 100 µM SNP, 20 min, 37° C., mouse cortical neurons
Description: PDE 2 inhibitors increase the intracellular neronal cGMP concentration after prestimulation of guanylate cyclase with 10^−4 M sodium nitroprusside (SNP) in primary mouse brain cell cultures.
Mouse embryos were decapitated and the heads were transferred into dissection dishes. The scalp and roof of the skull were removed, and the exposed brains were transferred into another Petri dish. Using a binocular microscope and two forceps, the cerebrum (cortex) was isolated and cooled to 4° C. with ice. This dissection and the isolation of the cortical neurons were then carried out in accordance with a standard protocol with the papain dissociation system (Worthington Biochemical Corporation, Lakewood, N.J. 08701, USA) (Huettner et al. J. Neurosci. 1986, 6, 3044–3060.). […] The cells were then lysed with 200 μl lysis buffer (cGMP kit code RPN 226; from Amersham Pharmacia Biotech.) and cGMP concentration was measured as stated by the manufacturer. […]
Cells were treated with […] SNP (0) or with […] SNP and Example 1 (1×10^−8 M; 5×10^−8 M; 1×10^−7 M; 5×10^−7 M; 1×10^−6 M) for 20 min. The intracellular cGMP level was then measured.

[7] = system: PDE1; assay: PDE inhibition, PDE1 (Ca-calmodulin-dependent); assay type: biochemical; settings: bovine PDE1
Text: as §5
as §6, with “[^3H]-cGMP.” for “[^3H]-cGMP. The final concentration of the respective nucleotides is 10^−6 mol/l.”
as §2, with “England). […]” for “England).”

[8] = biological target: T5, PDE7B (Homo sapiens, UniProt Q9NP56); assay: PDE inhibition, human recombinant PDE7B, [3H]cAMP SPA; assay type: biochemical
T5 construct: made in house; host or cells: Sf9 cells, pFASTBAC baculovirus expression system (Gibco BRL)
Description: as §1, §2, §3, §4

[9] = biological target: T6, PDE4B (Homo sapiens, UniProt Q07343); assay: PDE inhibition, human recombinant PDE4B, [3H]cAMP SPA; assay type: biochemical
T6 construct: made in house; host or cells: Sf9 cells, pFASTBAC baculovirus expression system (Gibco BRL)
Description: as §1, §2, §3, §4

[10] = biological target: T4, PDE2; settings: cited from earlier work
[11] = biological target: adenosine deaminase (Homo sapiens, UniProt P00813); settings: read-out: IC50 adenosine deaminase; cited from earlier work
Chain of adenosine deaminase (P00813 whole entry, species assumed): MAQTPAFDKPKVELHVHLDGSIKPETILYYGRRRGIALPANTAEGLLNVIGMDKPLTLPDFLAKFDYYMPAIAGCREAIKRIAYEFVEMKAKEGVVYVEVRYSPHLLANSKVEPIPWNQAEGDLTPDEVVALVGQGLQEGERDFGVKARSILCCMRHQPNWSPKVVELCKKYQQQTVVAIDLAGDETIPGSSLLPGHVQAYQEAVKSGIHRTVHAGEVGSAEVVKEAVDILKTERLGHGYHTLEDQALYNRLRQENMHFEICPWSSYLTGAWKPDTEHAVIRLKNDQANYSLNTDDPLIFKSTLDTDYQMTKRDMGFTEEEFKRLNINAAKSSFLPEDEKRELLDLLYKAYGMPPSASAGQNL

T4 sequence (O00408 whole entry): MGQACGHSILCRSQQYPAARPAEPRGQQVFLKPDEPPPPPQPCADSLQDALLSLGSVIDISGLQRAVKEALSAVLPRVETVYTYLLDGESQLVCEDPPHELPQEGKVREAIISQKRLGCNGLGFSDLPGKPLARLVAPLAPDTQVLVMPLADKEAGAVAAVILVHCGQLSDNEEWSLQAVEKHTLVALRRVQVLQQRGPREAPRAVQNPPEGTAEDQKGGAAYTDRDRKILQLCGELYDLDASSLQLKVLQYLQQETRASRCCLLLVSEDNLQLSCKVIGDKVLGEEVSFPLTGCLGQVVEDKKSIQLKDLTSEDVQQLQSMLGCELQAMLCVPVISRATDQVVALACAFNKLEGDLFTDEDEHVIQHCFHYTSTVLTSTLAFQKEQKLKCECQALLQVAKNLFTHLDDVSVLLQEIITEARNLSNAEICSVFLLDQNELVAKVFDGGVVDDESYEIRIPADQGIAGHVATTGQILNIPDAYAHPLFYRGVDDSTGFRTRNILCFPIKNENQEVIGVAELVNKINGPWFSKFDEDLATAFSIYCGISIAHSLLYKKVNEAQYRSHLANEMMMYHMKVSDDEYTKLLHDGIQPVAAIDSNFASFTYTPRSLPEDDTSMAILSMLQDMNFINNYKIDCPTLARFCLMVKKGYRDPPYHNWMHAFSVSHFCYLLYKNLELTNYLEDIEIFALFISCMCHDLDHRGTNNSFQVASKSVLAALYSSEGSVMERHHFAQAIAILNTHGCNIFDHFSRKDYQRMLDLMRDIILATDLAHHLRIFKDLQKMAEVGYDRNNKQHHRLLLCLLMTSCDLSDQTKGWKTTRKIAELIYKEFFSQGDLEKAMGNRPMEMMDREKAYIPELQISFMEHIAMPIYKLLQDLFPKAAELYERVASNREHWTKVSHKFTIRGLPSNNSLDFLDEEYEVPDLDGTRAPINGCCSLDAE
T6 sequence (Q07343 whole entry): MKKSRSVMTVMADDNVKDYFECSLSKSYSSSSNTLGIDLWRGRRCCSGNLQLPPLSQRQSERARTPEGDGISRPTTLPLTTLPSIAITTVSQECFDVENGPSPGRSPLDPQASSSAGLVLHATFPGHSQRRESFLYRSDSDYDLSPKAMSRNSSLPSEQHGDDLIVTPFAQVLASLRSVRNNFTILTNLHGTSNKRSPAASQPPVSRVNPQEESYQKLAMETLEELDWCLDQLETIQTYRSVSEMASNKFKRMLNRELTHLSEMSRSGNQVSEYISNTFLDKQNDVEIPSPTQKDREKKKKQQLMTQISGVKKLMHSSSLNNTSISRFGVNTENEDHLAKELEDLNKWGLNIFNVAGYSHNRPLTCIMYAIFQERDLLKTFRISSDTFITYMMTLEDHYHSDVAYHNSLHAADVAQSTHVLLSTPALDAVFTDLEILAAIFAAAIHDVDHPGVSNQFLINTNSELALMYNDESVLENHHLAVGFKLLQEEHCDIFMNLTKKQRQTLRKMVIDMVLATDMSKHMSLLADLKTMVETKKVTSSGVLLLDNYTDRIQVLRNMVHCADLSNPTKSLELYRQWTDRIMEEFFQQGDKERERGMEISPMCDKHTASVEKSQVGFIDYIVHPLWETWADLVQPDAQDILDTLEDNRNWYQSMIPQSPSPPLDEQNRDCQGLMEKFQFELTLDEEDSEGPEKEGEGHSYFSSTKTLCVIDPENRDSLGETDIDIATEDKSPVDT
T5 sequence (Q9NP56 whole entry): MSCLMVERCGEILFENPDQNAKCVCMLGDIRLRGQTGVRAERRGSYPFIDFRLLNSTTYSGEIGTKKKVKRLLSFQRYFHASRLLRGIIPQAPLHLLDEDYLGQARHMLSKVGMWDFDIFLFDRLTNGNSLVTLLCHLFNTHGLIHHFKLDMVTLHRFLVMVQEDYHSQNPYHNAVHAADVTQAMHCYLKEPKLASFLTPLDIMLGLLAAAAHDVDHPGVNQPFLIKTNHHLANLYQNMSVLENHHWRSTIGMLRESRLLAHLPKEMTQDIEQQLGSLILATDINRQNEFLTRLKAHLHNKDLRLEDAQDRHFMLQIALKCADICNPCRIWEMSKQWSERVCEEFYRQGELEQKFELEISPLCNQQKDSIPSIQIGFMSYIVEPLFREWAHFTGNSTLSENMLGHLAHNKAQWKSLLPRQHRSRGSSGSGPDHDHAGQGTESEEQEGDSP
T1 sequence (Q13370 whole entry): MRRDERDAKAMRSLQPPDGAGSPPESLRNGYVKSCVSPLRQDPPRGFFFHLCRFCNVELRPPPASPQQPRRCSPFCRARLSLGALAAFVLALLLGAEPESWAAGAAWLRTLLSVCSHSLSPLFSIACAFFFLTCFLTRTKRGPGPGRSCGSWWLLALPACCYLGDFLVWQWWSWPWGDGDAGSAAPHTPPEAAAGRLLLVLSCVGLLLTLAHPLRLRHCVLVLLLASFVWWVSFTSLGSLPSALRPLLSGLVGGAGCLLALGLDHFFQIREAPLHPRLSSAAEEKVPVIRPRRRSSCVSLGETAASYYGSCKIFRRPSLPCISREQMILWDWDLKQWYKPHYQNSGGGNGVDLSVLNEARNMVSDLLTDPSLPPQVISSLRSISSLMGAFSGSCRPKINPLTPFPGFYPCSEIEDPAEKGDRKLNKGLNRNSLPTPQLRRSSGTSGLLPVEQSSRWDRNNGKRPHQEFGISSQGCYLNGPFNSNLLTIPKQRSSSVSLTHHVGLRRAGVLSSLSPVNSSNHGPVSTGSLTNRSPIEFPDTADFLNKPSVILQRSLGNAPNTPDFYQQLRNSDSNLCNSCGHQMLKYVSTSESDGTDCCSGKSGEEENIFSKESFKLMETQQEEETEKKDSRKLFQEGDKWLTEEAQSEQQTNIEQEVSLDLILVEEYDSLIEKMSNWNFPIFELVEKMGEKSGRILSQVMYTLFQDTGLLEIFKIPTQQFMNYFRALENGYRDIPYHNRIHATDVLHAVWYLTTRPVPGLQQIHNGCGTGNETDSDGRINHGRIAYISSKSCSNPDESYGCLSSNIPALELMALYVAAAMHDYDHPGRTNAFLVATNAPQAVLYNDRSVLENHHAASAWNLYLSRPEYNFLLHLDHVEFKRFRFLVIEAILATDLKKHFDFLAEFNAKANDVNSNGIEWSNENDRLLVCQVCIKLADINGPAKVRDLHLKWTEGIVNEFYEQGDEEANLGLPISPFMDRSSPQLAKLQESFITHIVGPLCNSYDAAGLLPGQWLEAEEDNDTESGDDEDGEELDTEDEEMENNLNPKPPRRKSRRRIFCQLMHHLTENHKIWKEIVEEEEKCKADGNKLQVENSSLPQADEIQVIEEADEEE

With COc1ccc(Cc2nc3c(c(C)nn3C(CCCc3ccccc3)C(C)O)c(=O)[nH]2)cc1OC (stereo not shown) [Example 1, 6-(3,4-dimethoxybenzyl)-1-[1-(1-hydroxyethyl)-4-phenylbutyl]-3-methyl-1,5-dihydropyrazolo[3,4-d]pyrimidin-4-one] the IC50 [1] was > 4000 nM, the IC50 [2] was 7 nM and the IC50 [3] was 300 nM. For the same molecule, the “memory capacity in the second run compared with control (Tylose alone)” value ([4]; 0.3 mg/kg orally immediately after the first run) was “improved”, the “memory capacity in the second run compared with control (Tylose alone)” value ([4]; 1.0 mg/kg orally immediately after the first run) was “improved” and the “discrimination index (d2)” value ([4]; 0.3 and 1.0 mg/kg orally) was “greater than zero”. For the same molecule, the IC50 [5] was 6 nM, the “intracellular cGMP level” value [6] was “distinct increase” and the IC50 [7] was 200 nM. The IC50 [8] was 1600 nM and the IC50 [9] was 2900 nM.

In the case of CCCCCCC(C(C)O)n1cnc2c(N)ncnc21 (stereo not drawn) [EHNA, erythro-9-(2-hydroxy-3-nonyl)adenine], the IC50 [10] is given as 1000 nM and the IC50 [11] is given as 3 nM.
